This is an account of results in the NIST ThermoML archive (doi:10.1021/acs.jced.9b00173).

By viscosity is commonly meant the resistance of a fluid to flow.

Structures are written as SMILES. Numbers after ± are expanded uncertainties.

One data set can be described thus: xn = mol fraction of the nth substance listed. Conditions: 303.15 K; 101.3 kPa; Liquid; Concentric cylinders viscometry; x1 = 0.5.
As for `c1nc[nH]n1` [1H-1,2,4-triazole] + CCCC[P+](CCCC)(CCCC)CCCC.[Cl-], the viscosity is listed as 67.23 ± 2 mPa·s.
As for `c1nnn[nH]1` [1H-tetrazole] + CCCC[N+](CCCC)(CCCC)CCCC.[Br-], the viscosity was 279.15 ± 15 mPa·s.
In the case of `c1nnn[nH]1` [1H-tetrazole] + CCCC[N+](CCCC)(CCCC)CCCC.[Cl-], the viscosity is 87.88 ± 2.8 mPa·s.
The same measure, in the same setting: in the case of `c1nnn[nH]1` [1H-tetrazole] + CCCC[P+](CCCC)(CCCC)CCCC.[Br-] it was 68.26 ± 2.1 mPa·s.
The same measure, in the same setting: the figure for `c1nnn[nH]1` [1H-tetrazole] + CCCC[P+](CCCC)(CCCC)CCCC.[Cl-] is 40.22 ± 1.5 mPa·s.

Staying with this data set, now noted: 303.15 K; 101.3 kPa; Liquid; Concentric cylinders viscometry; x2 = 0.5.
Regarding `CCCC[P+](CCCC)(CCCC)CCCC.[Cl-]` [tetrabutylphosphonium chloride] + c1c[nH]cn1, the viscosity was 52.34 ± 1.6 mPa·s.
